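Dose response: 5 concentrations. Exposure: 48 h. Format: 96-well plates. Endpoint: linear interpolation; highest concentration if not reached. GI50: concentration for 50% inhibition of growth.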 Activity calls are given as the source filed them. Rule as the data show it: active = GI50 up to about 1.1 µM and inactive = higher.
Assays:
Experiment in all cases: DTP human tumour cell line panel, 48 h
[1] = test system: HCT-15
[2] = test system: 786-0
[3] = test system: UO-31
[4] = test system: UACC-257
[5] = test system: NCI-H522
[6] = test system: PC-3
[7] = test system: RXF 393
[8] = test system: SK-MEL-2
[9] = test system: NCI-H23
[10] = test system: OVCAR-3
[11] = test system: KM12
[12] = test system: MDA-N
[13] = test system: MCF7
[14] = test system: NCI-H460
[15] = test system: MDA-MB-435
[16] = test system: CAKI-1
[17] = test system: SNB-19
[18] = test system: Malme-3M
[19] = test system: TK-10
[20] = test system: OVCAR-4

Row | SMILES | GI50 [1] [µM] | GI50 [2] | GI50 [3] | GI50 [4] | GI50 [5] | GI50 [6] | GI50 [7] | GI50 [8] | GI50 [9] | GI50 [10] | GI50 [11] | GI50 [12] | GI50 [13] | GI50 [14] | GI50 [15] | GI50 [16] | GI50 [17] | GI50 [18] | GI50 [19] | GI50 [20]
1 | COc1ccc(/C=C/C(=O)CC(=O)/C=C/c2ccc(OC)cc2)cc1 | 42.9 | 30.8 µM (inactive) | 34.8 µM (inactive) | > 100 µM (inactive) | 7.94 µM (inactive) | 19.9 µM (inactive) | 23.8 µM (inactive) | > 100 µM (inactive) | 8.53 µM (inactive) | 23.1 µM (inactive) | > 100 µM (inactive) | 20.7 µM (inactive) | 64.9 µM (inactive) | 33 µM (inactive) | 38.6 µM (inactive) | 62.4 µM (inactive) | 89.9 µM (inactive) | 34.5 µM (inactive) | – | –
2 | CC(=O)OCC1OC(n2c(C)c(C(C)=O)c(-c3ccc(Cl)cc3)c(C#N)c2=S)C(OC(C)=O)C(OC(C)=O)C1OC(C)=O (configuration not stated) | > 100 | > 100 µM (inactive) | > 100 µM (inactive) | > 100 µM (inactive) | > 100 µM (inactive) | > 100 µM (inactive) | > 100 µM (inactive) | > 100 µM (inactive) | > 100 µM (inactive) | > 100 µM (inactive) | > 100 µM (inactive) | > 100 µM (inactive) | > 100 µM (inactive) | > 100 µM (inactive) | > 100 µM (inactive) | – | > 100 µM (inactive) | > 100 µM (inactive) | > 100 µM (inactive) | > 100 µM (inactive)
3 | NNc1nncc2[nH]nnc12 | > 100 | > 100 µM (inactive) | > 100 µM (inactive) | > 100 µM (inactive) | – | > 100 µM (inactive) | > 100 µM (inactive) | > 100 µM (inactive) | > 100 µM (inactive) | > 100 µM (inactive) | > 100 µM (inactive) | > 100 µM (inactive) | > 100 µM (inactive) | > 100 µM (inactive) | > 100 µM (inactive) | > 100 µM (inactive) | > 100 µM (inactive) | – | > 100 µM (inactive) | –
4 | CCc1cccc(CC)c1Nc1nc2c(s1)C(=O)c1ccccc1C2=O | 25.7 | 20.9 µM (inactive) | 15.4 µM (inactive) | 19.5 µM (inactive) | 23.4 µM (inactive) | 13.3 µM (inactive) | 24.8 µM (inactive) | 18.6 µM (inactive) | 15.3 µM (inactive) | 13.7 µM (inactive) | 18.1 µM (inactive) | 17.5 µM (inactive) | 22.4 µM (inactive) | 16.9 µM (inactive) | 17.5 µM (inactive) | 16.4 µM (inactive) | 17 µM (inactive) | 16 µM (inactive) | 21.2 µM (inactive) | –
5 | CC1=CC(=O)/C(=C/Nc2nc(-c3ccc([N+](=O)[O-])cc3)cs2)C(=O)O1 | > 100 | > 100 µM (inactive) | > 100 µM (inactive) | > 100 µM (inactive) | 31.6 µM (inactive) | 46.5 µM (inactive) | 27.7 µM (inactive) | > 100 µM (inactive) | > 100 µM (inactive) | – | > 100 µM (inactive) | > 100 µM (inactive) | > 100 µM (inactive) | > 100 µM (inactive) | > 100 µM (inactive) | > 100 µM (inactive) | 86.5 µM (inactive) | – | > 100 µM (inactive) | > 100 µM (inactive)
6 | C=C(C(=O)OCC)C(=O)OCC | > 100 | > 100 µM (inactive) | > 100 µM (inactive) | > 100 µM (inactive) | > 100 µM (inactive) | > 100 µM (inactive) | > 100 µM (inactive) | > 100 µM (inactive) | > 100 µM (inactive) | > 100 µM (inactive) | > 100 µM (inactive) | > 100 µM (inactive) | > 100 µM (inactive) | > 100 µM (inactive) | > 100 µM (inactive) | > 100 µM (inactive) | > 100 µM (inactive) | > 100 µM (inactive) | > 100 µM (inactive) | –
7 | C[C@]12CCC(=O)C=C1CC[C@@H]1[C@@H]2CC[C@]2(C)C(=O)/C(=C\c3ccccc3)C[C@@H]12 | 21.9 | 26.1 µM (inactive) | 25.7 µM (inactive) | 23.1 µM (inactive) | – | 12.8 µM (inactive) | 41.1 µM (inactive) | 11.7 µM (inactive) | 14.2 µM (inactive) | 22.1 µM (inactive) | 20.4 µM (inactive) | 16 µM (inactive) | 19.1 µM (inactive) | 17.1 µM (inactive) | 24.9 µM (inactive) | 43.5 µM (inactive) | 60.5 µM (inactive) | 29.4 µM (inactive) | 44.7 µM (inactive) | 41.9 µM (inactive)
8 | O=C(Nc1nc2ncn(CCOC(=O)c3ccccc3)c2c(=O)[nH]1)c1ccccc1 | 4.7 | 15.8 µM (inactive) | 51.9 µM (inactive) | > 95.7 µM (inactive) | 2.75 µM (inactive) | 47.2 µM (inactive) | 42.4 µM (inactive) | 35.2 µM (inactive) | 20.1 µM (inactive) | 29.5 µM (inactive) | 3.34 µM (inactive) | 2.54 µM (inactive) | 4.4 µM (inactive) | 8.43 µM (inactive) | 2.48 µM (inactive) | 20.7 µM (inactive) | 17.3 µM (inactive) | 42.3 µM (inactive) | > 100 µM (inactive) | –
9 | COc1cc(C(=O)/C=C/c2ccc(OCCSCCCCCCCCCCSCCOc3ccc(/C=C/C(=O)c4cc(OC)c(OC)c(OC)c4)cc3)cc2)cc(OC)c1OC | > 100 | > 100 µM (inactive) | > 100 µM (inactive) | – | > 100 µM (inactive) | > 100 µM (inactive) | > 100 µM (inactive) | > 100 µM (inactive) | > 100 µM (inactive) | > 100 µM (inactive) | > 100 µM (inactive) | > 100 µM (inactive) | > 100 µM (inactive) | – | > 100 µM (inactive) | > 100 µM (inactive) | > 100 µM (inactive) | > 100 µM (inactive) | > 100 µM (inactive) | –
10 | O=C(O)C1(Cc2ccc3c(c2)CCC3)Cc2ccccc2C1=O (configuration not stated) | 34.8 | > 100 µM (inactive) | 56 µM (inactive) | > 100 µM (inactive) | – | 46.7 µM (inactive) | > 100 µM (inactive) | 46 µM (inactive) | 46.2 µM (inactive) | 54 µM (inactive) | 39.7 µM (inactive) | > 100 µM (inactive) | > 100 µM (inactive) | 50.1 µM (inactive) | > 100 µM (inactive) | – | 79.3 µM (inactive) | > 100 µM (inactive) | > 100 µM (inactive) | 55.6 µM (inactive)
11 | Cc1cc(NC(=O)NC(=O)c2ccccc2N(C)C)ccc1Oc1ncc(Br)cn1 | 0.202 | 0.425 µM (active) | 2.04 µM (inactive) | 0.41 µM (active) | 0.21 µM (active) | 0.333 µM (active) | 0.656 µM (active) | 0.733 µM (active) | 1.17 µM (inactive) | 0.29 µM (active) | 0.359 µM (active) | 0.0302 µM (active) | 0.249 µM (active) | 0.403 µM (active) | 0.0424 µM (active) | – | 0.532 µM (active) | 0.425 µM (active) | 4.51 µM (inactive) | 6.68 µM (inactive)

From ChEMBL document CHEMBL1201862, “PubChem BioAssay data set” (2004)
